≈ marks a conversion by molar mass, not a printed value.
Assays:
[1] = system: P388; experiment: Cytotoxicity against mouse P388 cells; format: functional, cell-based
[2] = Cytotoxicity against human HeLaS3 cells; format: functional, cell-based; conditions: HeLa S3

CC(=O)O[C@]12C=CC(O)C[C@H]1OCC2 (stereo not given in full) showed an IC50 [1] of over 100 µg/mL and an IC50 [2] of over 100 µg/mL.

CC(=O)O[C@]12C=CC(=O)C[C@H]1OCC2 showed an IC50 [1] of 0.5 µg/mL (≈ 2.55 µM) and an IC50 [2] of 4.1 µg/mL (≈ 20.9 µM).

Compound O=C1C=C[C@]2(O)CCO[C@@H]2C1 [HALLERIDONE] has an IC50 [1] of 2.1 µg/mL (≈ 13.6 µM) and an IC50 [2] of 2.8 µg/mL (≈ 18.2 µM).

Work on CCCCCCCC(=O)O[C@]12C=CC(O)C[C@H]1OCC2 (stereo not given in full) yielded an IC50 [1] of 8.4 µg/mL (≈ 29.7 µM) and an IC50 [2] of 3.5 µg/mL (≈ 12.4 µM).

Work on CCCCCC(=O)O[C@]12C=CC(=O)C[C@H]1OCC2 yielded an IC50 [1] of 0.3 µg/mL (≈ 1.19 µM) and an IC50 [2] of 1.8 µg/mL (≈ 7.13 µM).

With CCCCCC(=O)O[C@]12C=CC(O)C[C@H]1OCC2 (stereo not given in full) the IC50 [1] was 38.5 µg/mL (≈ 151 µM) and the IC50 [2] was 5.3 µg/mL (≈ 20.8 µM).

With O=C1C=C[C@]2(OC(=O)c3ccccc3Cl)CCO[C@@H]2C1 the IC50 [1] was 0.4 µg/mL (≈ 1.37 µM) and the IC50 [2] was 1 µg/mL (≈ 3.42 µM).

With CCCC(=O)O[C@]12C=CC(O)C[C@H]1OCC2 (stereo not given in full) the IC50 [1] was over 100 µg/mL and the IC50 [2] was 8.8 µg/mL (≈ 38.9 µM).

With OC1C=C[C@]2(O)CCO[C@@H]2C1 (stereo not given in full) the IC50 [1] was 40.8 µg/mL (≈ 261 µM) and the IC50 [2] was over 100 µg/mL.

With O=C1C=C[C@]2(OC(=O)c3ccc(Cl)cc3)CCO[C@@H]2C1 the IC50 [1] was 0.7 µg/mL (≈ 2.39 µM) and the IC50 [2] was 0.9 µg/mL (≈ 3.07 µM).

O=C1CC[C@]2(O)CCO[C@@H]2C1 gave an IC50 [1] of 43 µg/mL (≈ 275 µM) and an IC50 [2] of over 100 µg/mL.

Compound CCCCCCCC(=O)O[C@]12C=CC(=O)C[C@H]1OCC2 has an IC50 [1] of 0.3 µg/mL (≈ 1.07 µM) and an IC50 [2] of 0.8 µg/mL (≈ 2.85 µM).

Work on O=C1C=C[C@]2(OC(=O)c3ccccc3)CCO[C@@H]2C1 yielded an IC50 [1] of 0.5 µg/mL (≈ 1.94 µM) and an IC50 [2] of 1.6 µg/mL (≈ 6.19 µM).

For O=C1C=C[C@]2(OC(=O)c3cccc(Cl)c3)CCO[C@@H]2C1, the IC50 [1] was under 0.1 µg/mL and the IC50 [2] was 1.2 µg/mL (≈ 4.1 µM).

CCCC(=O)O[C@]12C=CC(=O)C[C@H]1OCC2 gave an IC50 [1] of 0.6 µg/mL (≈ 2.68 µM) and an IC50 [2] of 2.7 µg/mL (≈ 12 µM).

Reference: ChEMBL document CHEMBL1151128, “Halleridone, a cytotoxic constituent from Cornus controversa” (J Nat Prod, 1988)
